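Test compounds were applied to cells in 96-well plates for 48 hours at 5 doses. GI50 marks 50% less growth.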 The source made the active and inactive calls. No stated cut-off is given here; in the data, active = GI50 up to about 1.1 µM and inactive = higher. Where a SMILES comes first, the peptide text is derived from it. The star is where a group is joined. Boc = CC(C)(C)OC(=O)*; tBu = CC(C)(C)*
Columns and labels:
Experiment in all cases: NCI tumour cell line growth inhibition, 48 h
DU-145 = tested on: DU-145
SK-MEL-2 = tested on: SK-MEL-2
CCRF-CEM = tested on: CCRF-CEM
IGROV-1 = tested on: IGROV-1
M14 = tested on: M14
SN12C = tested on: SN12C
HOP-62 = tested on: HOP-62
SF-539 = tested on: SF-539
U-251 = tested on: U-251
RPMI-8226 = tested on: RPMI-8226
OVCAR-4 = tested on: OVCAR-4
NCI-H226 = tested on: NCI-H226
MDA-N = tested on: MDA-N
COLO 205 = tested on: COLO 205
OVCAR-3 = tested on: OVCAR-3
SR = tested on: SR
HCC 2998 = tested on: HCC 2998
OVCAR-5 = tested on: OVCAR-5
NCI/ADR-RES = tested on: NCI/ADR-RES
K562 = tested on: K562

| SMILES | GI50 (DU-145) | GI50 (SK-MEL-2) | GI50 (CCRF-CEM) | GI50 (IGROV-1) | GI50 (M14) | GI50 (SN12C) | GI50 (HOP-62) | GI50 (SF-539) | GI50 (U-251) | GI50 (RPMI-8226) | GI50 (OVCAR-4) | GI50 (NCI-H226) | GI50 (MDA-N) | GI50 (COLO 205) | GI50 (OVCAR-3) | GI50 (SR) | GI50 (HCC 2998) | GI50 (OVCAR-5) | GI50 (NCI/ADR-RES) | GI50 (K562) |
| --- | --- | --- | --- | --- | --- | --- | --- | --- | --- | --- | --- | --- | --- | --- | --- | --- | --- | --- | --- | --- |
| CC1(C)C[C@H]2[C@H](O)C(CO)=C3C(=O)[C@@H](O)[C@]3(C)[C@H]2C1 | > 100 µM (inactive) | > 100 µM (inactive) | 24.5 µM (inactive) | > 100 µM (inactive) | > 100 µM (inactive) | > 100 µM (inactive) | > 100 µM (inactive) | 48.6 µM (inactive) | > 100 µM (inactive) | 38.4 µM (inactive) | > 100 µM (inactive) | > 100 µM (inactive) | 80.2 µM (inactive) | > 100 µM (inactive) | > 100 µM (inactive) | 50.2 µM (inactive) | > 100 µM (inactive) | > 100 µM (inactive) | > 100 µM (inactive) | 36.6 µM (inactive) |
| O=C1/C(=C\c2ccc(-c3ccc(Cl)cc3Cl)o2)SC2NC(COc3ccc(Cl)cc3)=NN12 (stereo not given) | 65.6 µM (inactive) | 50.5 µM (inactive) | 16 µM (inactive) | 29.9 µM (inactive) | > 100 µM (inactive) | 72.1 µM (inactive) | 80.4 µM (inactive) | 49 µM (inactive) | 21.4 µM (inactive) | 38.4 µM (inactive) | 45.3 µM (inactive) | 20.2 µM (inactive) | 44.2 µM (inactive) | 41.5 µM (inactive) | 36 µM (inactive) | 33.3 µM (inactive) | 41.1 µM (inactive) | > 100 µM (inactive) | 37.5 µM (inactive) | 48.9 µM (inactive) |
| COc1ccc2c(C)cc(N/N=C(\C)C=O)nc2c1 | 11.7 µM (inactive) | 13.4 µM (inactive) | 1.82 µM (inactive) | 16.5 µM (inactive) | 13.6 µM (inactive) | 11.2 µM (inactive) | 8.79 µM (inactive) | 6.25 µM (inactive) | 11.4 µM (inactive) | 6.31 µM (inactive) | 11.2 µM (inactive) | 10.5 µM (inactive) | 10.8 µM (inactive) | 13.8 µM (inactive) | 2.25 µM (inactive) | 1.64 µM (inactive) | 11.9 µM (inactive) | 13 µM (inactive) | 11.7 µM (inactive) | 2.47 µM (inactive) |
| O=C1Nc2ccccc2N/C1=C\C(=O)C(F)F | > 100 µM (inactive) | > 100 µM (inactive) | > 100 µM (inactive) | > 100 µM (inactive) | > 100 µM (inactive) | > 100 µM (inactive) | > 100 µM (inactive) | > 100 µM (inactive) | > 100 µM (inactive) | > 100 µM (inactive) | > 100 µM (inactive) | > 100 µM (inactive) | > 100 µM (inactive) | > 100 µM (inactive) | > 100 µM (inactive) | > 100 µM (inactive) | > 100 µM (inactive) | > 100 µM (inactive) | > 100 µM (inactive) | > 100 µM (inactive) |
| O=C(O)c1cc(=O)c2c(OCC(O)COc3cccc4oc(C(=O)O)cc(=O)c34)cccc2o1 | > 100 µM (inactive) | > 56.4 µM (inactive) | > 71 µM (inactive) | > 60.5 µM (inactive) | > 88.1 µM (inactive) | > 100 µM (inactive) | > 91.2 µM (inactive) | 98.2 µM (inactive) | > 75.2 µM (inactive) | > 70.1 µM (inactive) | > 100 µM (inactive) | > 100 µM (inactive) | > 71.8 µM (inactive) | > 68.4 µM (inactive) | > 100 µM (inactive) | > 81.8 µM (inactive) | > 100 µM (inactive) | > 84.3 µM (inactive) | > 100 µM (inactive) | > 90.2 µM (inactive) |
| CN(C)CCn1c(=O)c2ccc(NCCN3CCNCC3)c3c(=O)c4ccccc4n(c1=O)c23 | 3.39 µM (inactive) | 2.56 µM (inactive) | 0.207 µM (active) | 0.345 µM (active) | 4.84 µM (inactive) | 1.47 µM (inactive) | 4.06 µM (inactive) | 0.473 µM (active) | 1.11 µM (active) | 0.251 µM (active) | 5.69 µM (inactive) | 2.38 µM (inactive) | 3.68 µM (inactive) | 1.35 µM (inactive) | 5.05 µM (inactive) | 0.0776 µM (active) | 1.97 µM (inactive) | 8.47 µM (inactive) | 9.93 µM (inactive) | 0.231 µM (active) |
| CC(OC(C)(C)C)C(NC(=O)C(N)CCCCNC(=O)OC(C)(C)C)C(=O)NC(Cc1ccccc1)C(=O)O (stereo not given) (H-Lys(Boc)-Thr(tBu)-Phe-OH; configuration not given here) | > 100 µM (inactive) | > 100 µM (inactive) | > 100 µM (inactive) | > 100 µM (inactive) | > 100 µM (inactive) | > 100 µM (inactive) | > 100 µM (inactive) | > 100 µM (inactive) | > 100 µM (inactive) | > 100 µM (inactive) | > 100 µM (inactive) | > 100 µM (inactive) | > 100 µM (inactive) | > 100 µM (inactive) | > 100 µM (inactive) | > 100 µM (inactive) | > 100 µM (inactive) | > 100 µM (inactive) | > 100 µM (inactive) | > 100 µM (inactive) |
| CCC(=C/[C@H](C)C/C=C/C(C)=C/[C@@H](C)C(=O)[C@@H](C)[C@H](O)[C@@H](C)CC)/C=C/[C@H]1CC=CC(=O)O1 [CALLYSTATIN A] | < 0.0012 µM (active) | < 0.0012 µM (active) | < 0.0012 µM (active) | < 0.0012 µM (active) | < 0.0012 µM (active) | < 0.0012 µM (active) | < 0.0012 µM (active) | < 0.0012 µM (active) | < 0.0012 µM (active) | 2.67 µM (inactive) | < 0.0012 µM (active) | 0.0168 µM (active) | < 0.0012 µM (active) | < 0.0012 µM (active) | < 0.0012 µM (active) | < 0.0012 µM (active) | < 0.0012 µM (active) | < 0.0012 µM (active) | < 0.0012 µM (active) | < 0.0012 µM (active) |

— ChEMBL document CHEMBL1201862, “PubChem BioAssay data set” (2004)
